Assay results: patent US20040204409A1, “Bicyclic compounds as NR2B receptor antagonists” (priority 2003, published 2004)

Target: T1, NR2B receptor (Rattus norvegicus, UniProt P35439+Q00960)
T1 construct: Membranes were prepared by homogenization of forebrain of male CD rats; from tissue; host or cells: rat forebrain P2 membrane
Assay: NR2B Binding Assay (competition with [3H]-1-[(1S*,2S*)-2-hydroxy-2-(4-hydroxyphenyl)-1-methylethyl]-4-phenylpiperidin-4-ol on P2 membrane)
Conditions: forebrain P2 membrane of male CD rats, 5 nM radioligand, 60 minutes at room temperature, pH7.4; read-out: Ki value with respect to binding affinity for the NR2B receptor
Protocol: The activity of the bicyclic amide compounds of the present invention, as NR2B antagonists, is determined by their ability to inhibit the binding of NR2B subunit at its receptor sites employing radioactive ligands.
The NR2B antagonist activity of the bicyclic amide compounds is evaluated by using the standard assay procedure described in, for example, J. Pharmacol., 331, pp117-126, 1997. This method essentially involves determining the concentration of the individual compound required to reduce the amount of radiolabelled NR2B ligands by 50% at their receptor sites, thereby affording characteristic IC50 values for each compound tested. More specifically, the assay is carried out as follows. […]
For the saturation assay, receptor saturation was determined by incubating [^3H]-1-[(1S*,2S*)-2-hydroxy-2-(4-hydroxyphenyl)-1-methylethyl]-4-phenylpiperidin-4-ol and 50 μg protein of P2 membrane for 60 minutes at room temperature in a final 100 μl of incubation buffer (50 mM Tris HCl, pH7.4). Total and non-specific bindings (in the presence of 10 μM of unlabeled 1-[(1S*,2S*)-2-hydroxy-2-(4-hydroxyphenyl)-1-methylethyl]-4-phenylpiperidin-4-ol) were determined in a range of [3H]-1-[(1S*,2S*)-2-hydroxy-2-(4-hydroxyphenyl)-1-methylethyl]-4-phenylpiperidin-4-ol concentrations (0.625 nM to 60 nM). […]

T1 sequence (Q00960 27-1482, other chains not shown): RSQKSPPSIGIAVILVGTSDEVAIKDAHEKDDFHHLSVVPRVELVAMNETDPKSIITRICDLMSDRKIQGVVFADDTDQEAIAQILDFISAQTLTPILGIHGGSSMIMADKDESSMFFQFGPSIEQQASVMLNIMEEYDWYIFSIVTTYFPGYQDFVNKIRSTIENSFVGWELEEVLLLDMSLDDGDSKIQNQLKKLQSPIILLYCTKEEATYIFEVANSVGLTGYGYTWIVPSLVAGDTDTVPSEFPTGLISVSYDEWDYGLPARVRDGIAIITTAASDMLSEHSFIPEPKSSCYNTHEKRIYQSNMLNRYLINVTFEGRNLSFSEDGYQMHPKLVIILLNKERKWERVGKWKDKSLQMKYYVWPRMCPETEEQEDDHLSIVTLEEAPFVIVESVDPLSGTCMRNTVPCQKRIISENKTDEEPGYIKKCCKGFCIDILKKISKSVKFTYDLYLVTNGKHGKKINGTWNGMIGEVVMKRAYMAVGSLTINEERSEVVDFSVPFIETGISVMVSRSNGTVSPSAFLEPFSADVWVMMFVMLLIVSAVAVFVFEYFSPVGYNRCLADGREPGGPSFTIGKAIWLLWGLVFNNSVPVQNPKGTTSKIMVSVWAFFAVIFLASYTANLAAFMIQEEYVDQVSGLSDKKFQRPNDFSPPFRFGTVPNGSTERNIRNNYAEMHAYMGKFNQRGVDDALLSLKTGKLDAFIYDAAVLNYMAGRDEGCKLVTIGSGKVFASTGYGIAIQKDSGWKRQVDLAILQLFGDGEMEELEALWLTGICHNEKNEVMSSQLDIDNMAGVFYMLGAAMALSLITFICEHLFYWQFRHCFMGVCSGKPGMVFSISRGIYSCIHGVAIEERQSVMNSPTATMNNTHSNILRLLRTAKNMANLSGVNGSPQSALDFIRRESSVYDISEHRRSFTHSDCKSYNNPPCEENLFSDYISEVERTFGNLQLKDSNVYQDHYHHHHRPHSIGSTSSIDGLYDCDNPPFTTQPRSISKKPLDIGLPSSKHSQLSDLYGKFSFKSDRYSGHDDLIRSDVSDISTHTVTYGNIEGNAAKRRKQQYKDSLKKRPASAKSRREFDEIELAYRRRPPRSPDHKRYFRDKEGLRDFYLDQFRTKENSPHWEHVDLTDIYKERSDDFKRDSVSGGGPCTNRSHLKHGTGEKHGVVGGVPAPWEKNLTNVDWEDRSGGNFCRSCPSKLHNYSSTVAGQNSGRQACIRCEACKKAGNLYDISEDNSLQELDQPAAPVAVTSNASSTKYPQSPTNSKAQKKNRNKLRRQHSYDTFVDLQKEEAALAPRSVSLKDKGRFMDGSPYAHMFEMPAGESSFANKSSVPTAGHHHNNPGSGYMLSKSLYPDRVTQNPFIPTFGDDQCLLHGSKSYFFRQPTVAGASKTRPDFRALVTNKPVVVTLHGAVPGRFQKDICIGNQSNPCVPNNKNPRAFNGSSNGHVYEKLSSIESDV

- Ki: 2 nM
Structure (SMILES): O=C(NCc1ccc2[nH]c(Cc3ccccc3)cc2c1)c1ccc(O)cc1 [Example 8, N-[(2-benzyl-1H-indol-5-yl)methyl]-4-hydroxybenzamide]
